Measurements published in patent US9144239B2, “Macrocyclic picolinamides as fungicides” (DOW AGROSCIENCES LLC, priority 2012, dated 2015).
Read-outs that look alike come from different tables or passages of the source.

How the values were obtained:
[1] = tested on: Mycosphaerella graminicola; anamorph: Septoria tritici; test: Fungicidal activity: leaf blotch of wheat (SEPTTR), wheat seedlings; assay type: in vivo; conditions: Zymoseptoria tritici
Outline: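 Percent control derives from disease severity on treated versus untreated first leaves, rated 0–100% when symptoms were fully expressed on untreated plants. Yuma seedlings were inoculated with S. tritici spores either before or after spraying to run-off. The spray was acetone solution diluted 1:9 in water with 110 ppm Triton X-100. Infection took place in 100% RH dew chambers, then a 20 °C greenhouse.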

[2] = tested on: Puccinia triticina; synonym: Puccinia recondita f. sp. tritici; test: Fungicidal activity: wheat brown rust (PUCCRT), wheat seedlings; assay type: in vivo
Outline: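 Wheat (Yuma) seedlings at first-leaf stage, inoculated with Puccinia triticina spores before or after treatment, held overnight in dark dew room at 22° C, 100% RH, then greenhouse at 24° C. Acetone solutions diluted with nine volumes water containing 110 ppm Triton X-100, sprayed to run-off. Percent disease control derived from severity (0–100%) relative to untreated plants.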

[3] = tested on: Puccinia triticina; synonym: Puccinia recondita f. sp. tritici; test: Fungicide mobility (dropline mobility test): wheat brown rust (PUCCRT); assay type: in vivo; conditions: 1 ug/leaf
Description: Evaluation of Fungicide Mobility: Wheat Brown Rust (Puccinia triticina; Synonym: Puccinia recondita f. sp. tritici; Bayer Code PUCCRT) “Yuma” wheat seedlings were used in the test. One mg of compound was dissolved in 9 μl of EC blank (emulsifiable concentrate) and 500 μl of acetone. Acetone was then evaporated overnight by leaving the vial open in a fume hood. Two milliliters of water containing 110 ppm Triton X-100 was added to each vial to prepare application solutions. A 2 μl drop of formulated material was applied to a marked line on the adaxial surface 5 cm from the leaf tip of the primary leaves. The primary leaves were kept in a horizontal position. Each treatment had 6 replicates. Plants were inoculated with PUCCRT 1-day after (1DPM) or 3-day prior to (3DCM) compound applications. When rust was fully expressed on primary leaves on control plants, the zone of treated leaves that was disease-free in the acropetal direction was measured with a ruler and converted to percent of the distance from marked line to leaf tip.

[4] = 24 h, 100 ppm, 1 Day Protectant, wheat, read-out: Disease Control SEPTTR 1DP
[5] = 72 h, 100 ppm, 3 Day Curative, wheat, read-out: Disease Control SEPTTR 3DC
[6] = 24 h, 100 ppm, 1 Day Protectant, wheat, read-out: Disease Control PUCCRT 1DP
[7] = 72 h, 100 ppm, 3 Day Curative, wheat, read-out: Disease Control PUCCRT 3DC
[8] = 24 h, 1 Day Protectant Mobility, read-out: Dropline Mobility Test PUCCRT 1DPM
[9] = 72 h, 3 Day Curative Mobility, read-out: Dropline Mobility Test PUCCRT 3DCM

CCCCO[C@H]1COC[C@H](N)C(=O)O[C@@H](C)[C@@H]1OCc1ccccc1.Cl
melting point: 174 to 177 °C

C[C@@H]1OC(=O)[C@@H](N)COC[C@H](Oc2ccccc2)[C@H]1Oc1ccccc1.Cl
melting point: 227 to 229 °C

C[C@@H]1OC(=O)[C@@H](N)COC[C@H](OCC2CC2)[C@H]1OCC1CC1.Cl
melting point: 181 to 185 °C

CC(C)CO[C@H]1[C@H](C)OC(=O)[C@@H](N)COC[C@@H]1Oc1ccc(F)cc1.Cl
melting point: 197 to 200 °C

Cc1ccc(O[C@H]2[C@H](C)OC(=O)[C@@H](N)COC[C@@H]2Oc2ccc(C)cc2)cc1.Cl
melting point: 213 to 216 °C

C[C@@H]1OC(=O)[C@@H](N)COC[C@H](Oc2ccccc2)[C@H]1OC1CCCC1.Cl
melting point: 217 to 219 °C

CCCO[C@H]1[C@H](C)OC(=O)[C@@H](N)COC[C@@H]1Oc1ccccc1.Cl
melting point: 217 to 219 °C

COc1ccc(O[C@H]2COC[C@H](N)C(=O)O[C@@H](C)[C@@H]2OC(=O)C(C)C)cc1.Cl
melting point: 197 to 198 °C

COc1ccc(O[C@H]2[C@H](C)OC(=O)[C@@H](N)COC[C@@H]2OC(=O)C(C)C)cc1.Cl
melting point: 207 to 208 °C

Cc1cc(C)cc(O[C@H]2[C@H](C)OC(=O)[C@@H](N)COC[C@@H]2Oc2cc(C)cc(C)c2)c1.Cl
melting point: 212 °C

CC(C)CO[C@H]1COC[C@H](N)C(=O)O[C@@H](C)[C@@H]1Oc1cccc(Cl)c1.Cl
melting point: 168 to 169 °C

COc1ccnc(C(=O)N[C@@H]2COC[C@H](OCC(C)C)[C@@H](OCC(C)C)COC2=O)c1O [Compound 10]
melting point: 92 to 97 °C | pest or weed control at 100 ppm [1, 4]: 0 to 80% | pest or weed control at 100 ppm [1, 5]: 0 to 80% | pest or weed control at 100 ppm [2, 6]: 0 to 80% | pest or weed control at 100 ppm [2, 7]: 0 to 80%

COc1ccnc(C(=O)N[C@H]2COC[C@H](OCC(C)C)[C@@H](OCC(C)C)COC2=O)c1OCOC(C)=O [Compound 13]
melting point: 58 to 64 °C | pest or weed control at 100 ppm [1, 4]: 80 to 100% | pest or weed control at 100 ppm [2, 6]: 80 to 100% | pest or weed control at 100 ppm [2, 7]: 80 to 100%

CC[C@@H]1OC(=O)[C@@H](NC(=O)c2nccc(OC)c2O)COC[C@H](OCC(C)C)[C@H]1OCC(C)C [Compound 21, N-((3S,7S,8S,9S)-9-ethyl-7,8-diisobutoxy-2-oxo-1,5-dioxonan-3-yl)-3-hydroxy-4-methoxypicolinamide]
melting point: 119 to 121 °C | pest or weed control at 100 ppm [1, 4]: 80 to 100% | pest or weed control at 100 ppm [1, 5]: 0 to 80% | pest or weed control at 100 ppm [2, 6]: 80 to 100% | pest or weed control at 100 ppm [2, 7]: 80 to 100%

CCCCO[C@H]1[C@H](C)OC(=O)[C@@H](NC(=O)c2nccc(OC)c2O)COC[C@@H]1OCc1ccccc1 [Compound 32, N-((3S,7S,8S,9S)-7-(benzyloxy)-8-butoxy-9-methyl-2-oxo-1,5-dioxonan-3-yl)-3-hydroxy-4-methoxypicolinamide]
melting point: 105 to 107 °C | pest or weed control at 100 ppm [1, 4]: 80 to 100% | pest or weed control at 100 ppm [1, 5]: 0 to 80% | pest or weed control at 100 ppm [2, 6]: 80 to 100% | pest or weed control at 100 ppm [2, 7]: 80 to 100%

CCCCO[C@H]1COC[C@H](NC(=O)c2nccc(OC)c2O)C(=O)O[C@@H](C)[C@@H]1OCc1ccccc1 [Compound 33, N-((3S,7S,8S,9S)-8-(benzyloxy)-7-butoxy-9-methyl-2-oxo-1,5-dioxonan-3-yl)-3-hydroxy-4-methoxypicolinamide]
melting point: 117 to 119 °C | pest or weed control at 100 ppm ([1]; 24 h, read-out: Disease Control SEPTTR 1DP): 80 to 100% | pest or weed control at 100 ppm ([1]; 72 h, read-out: Disease Control SEPTTR 3DC): 0 to 80% | pest or weed control at 100 ppm ([2]; 24 h, read-out: Disease Control PUCCRT 1DP): 80 to 100% | pest or weed control at 100 ppm ([2]; 72 h, read-out: Disease Control PUCCRT 3DC): 80 to 100%

CCCCO[C@H]1COC[C@H](NC(=O)c2nccc(OC)c2O)C(=O)O[C@@H](C)[C@@H]1OC [Compound 36, N-((3S,7S,8S,9S)-7-butoxy-8-methoxy-9-methyl-2-oxo-1,5-dioxonan-3-yl)-3-hydroxy-4-methoxypicolinamide]
melting point: 118 to 120 °C | pest or weed control at 100 ppm [1, 4]: 0 to 80% | pest or weed control at 100 ppm [1, 5]: 0 to 80% | pest or weed control at 100 ppm [2, 6]: 80 to 100% | pest or weed control at 100 ppm [2, 7]: 80 to 100%

C=CCO[C@H]1[C@H](C)OC(=O)[C@@H](NC(=O)c2nccc(OC)c2O)COC[C@@H]1OCCCC [Compound 43, N-((3S,7S,8S,9S)-8-(allyloxy)-7-butoxy-9-methyl-2-oxo-1,5-dioxonan-3-yl)-3-hydroxy-4-methoxypicolinamide]
melting point: 101 to 103 °C | pest or weed control at 100 ppm [1, 4]: 80 to 100% | pest or weed control at 100 ppm [1, 5]: 0 to 80% | pest or weed control at 100 ppm [2, 6]: 80 to 100% | pest or weed control at 100 ppm [2, 7]: 80 to 100%

CCCCO[C@H]1COC[C@H](NC(=O)c2nccc(OC)c2O)C(=O)O[C@@H](C)[C@@H]1OCCC [Compound 44, N-((3S,7S,8S,9S)-7-butoxy-9-methyl-2-oxo-8-propoxy-1,5-dioxonan-3-yl)-3-hydroxy-4-methoxypicolinamide]
melting point: 110 to 112 °C | pest or weed control at 100 ppm [1, 4]: 80 to 100% | pest or weed control at 100 ppm [1, 5]: 80 to 100% | pest or weed control at 100 ppm [2, 6]: 80 to 100% | pest or weed control at 100 ppm [2, 7]: 80 to 100%

C=C(C)CO[C@@H]1[C@@H](OCC(=C)C)COC[C@H](NC(=O)OCc2ccccc2)C(=O)O[C@H]1CC [Compound 88, benzyl ((3S,7S,8S,9S)-9-ethyl-7,8-bis((2-methylallyl)oxy)-2-oxo-1,5-dioxonan-3-yl)carbamate]
melting point: 108 to 110 °C

C[C@@H]1OC(=O)[C@@H](NC(=O)OC(C)(C)C)COC[C@H](OCc2ccccc2)[C@H]1OCc1ccccc1 [Compound 93, tert-butyl ((3S,7S,8S,9S)-7,8-bis(benzyloxy)-9-methyl-2-oxo-1,5-dioxonan-3-yl)carbamate]
melting point: 69 to 71 °C

CCCCO[C@H]1[C@H](C)OC(=O)[C@@H](NC(=O)OC(C)(C)C)COC[C@@H]1OCc1ccccc1 [Compound 99]
melting point: 51 to 54 °C

CCCCO[C@H]1COC[C@H](NC(=O)OC(C)(C)C)C(=O)O[C@@H](C)[C@@H]1OC(=O)C(C)C [Compound 113, (3S,6S,7S,8S)-8-butoxy-3-((tert-butoxycarbonyl)amino)-6-methyl-4-oxo-1,5-dioxonan-7-yl isobutyrate]
melting point: 69 to 71 °C

C=C(C)CO[C@H]1[C@H](C)OC(=O)[C@@H](NC(=O)OCc2ccccc2)COC[C@@H]1OCC(=C)C [Compound 126, benzyl (3S,7S,8S,9S)-9-methyl-7,8-bis(2-methylallyloxy)-2-oxo-1,5-dioxonan-3-ylcarbamate]
melting point: 90 to 91 °C

C=C(C)CO[C@H]1[C@H](C)OC[C@H](NC(=O)OCc2ccccc2)C(=O)OC[C@@H]1OCC(=C)C [Compound 127]
melting point: 79 to 81 °C

CC(C)CO[C@H]1[C@H](C)OC(=O)[C@@H](N)COC[C@@H]1OCC(C)C [Compound 160, (3S,7S,8S,9S)-3-amino-7,8-diisobutoxy-9-methyl-1,5-dioxonan-2-one]
melting point: 144 to 146 °C

C=C(C)CO[C@H]1COC[C@H](NC(=O)OCc2ccccc2)C(=O)OC[C@@H]1OCC(=C)C [Compound 186]
melting point: 66 to 68 °C

COc1ccnc(C(=O)N[C@H]2COC[C@H](OCCC(C)C)[C@@H](OCCC(C)C)[C@H](C)OC2=O)c1O [Compound 210, N-((3S,7S,8S,9S)-7,8-bis(isopentyloxy)-9-methyl-2-oxo-1,5-dioxonan-3-yl)-3-hydroxy-4-methoxypicolinamide]
melting point: 61 to 70 °C

COCCC(=O)Oc1c(OC)ccnc1C(=O)N[C@H]1COC[C@H](OCC(C)C)[C@@H](OCC(C)C)[C@H](C)OC1=O [Compound 237, 2-(((3S,7S,8S,9S)-7,8-diisobutoxy-9-methyl-2-oxo-1,5-dioxonan-3-yl)carbamoyl)-4-methoxypyridin-3-yl 3-methoxypropanoate]
pest or weed control at 100 ppm [1, 4]: 80 to 100% | pest or weed control at 100 ppm [1, 5]: 80 to 100% | pest or weed control at 100 ppm [2, 6]: 80 to 100% | pest or weed control at 100 ppm [2, 7]: 80 to 100% | pest or weed control at 1 µg/leaf [3, 8]: 80 to 100% | pest or weed control at 1 µg/leaf [3, 9]: 80 to 100%

COc1ccnc(C(=O)N[C@H]2COC[C@H](OCC(C)C)[C@@H](OCC(C)C)[C@H](C)OC2=O)c1OC(C)=O [Compound 238]
pest or weed control at 100 ppm [1, 4]: 80 to 100% | pest or weed control at 100 ppm [1, 5]: 80 to 100% | pest or weed control at 100 ppm [2, 6]: 80 to 100% | pest or weed control at 100 ppm [2, 7]: 80 to 100% | pest or weed control at 1 µg/leaf [3, 8]: 80 to 100% | pest or weed control at 1 µg/leaf [3, 9]: 80 to 100%

CC(C)CO[C@H]1[C@H](C)OC(=O)[C@@H](N(C(=O)OC(C)(C)C)C(=O)OC(C)(C)C)COC[C@@H]1Oc1ccc(F)cc1 [Compound 246]
melting point: 108 °C

C[C@@H]1OC(=O)[C@@H](N(C(=O)OC(C)(C)C)C(=O)OC(C)(C)C)COC[C@H](O)[C@H]1Oc1ccccc1 [Compound 249]
melting point: 110 to 112 °C
